# Source: patent US20060148804A1, “Pde4 inhibitors for the treatment of neoplasms of lymphoid cells” (priority 2003, published 2006)
# What was measured:
# NB4 cells [1] = assay: Intracellular cAMP and cAMP-dependent protein kinase (PKA) amounts in NB4 cells; format: cell-based; details: versus basal conditions
# Description: (§1) In NB4 cells, PICLAMILAST accelerates the process of morphological granulocytic maturation and enhances the ATRA-dependent induction of specific differentiation markers such as NBT-reductase (NBTR) as well as CD11b. PICLAMILAST not only enhances, but also accelerates the process of granulocytic maturation set in motion by ATRA in acute myelogenous leukemia cells, reducing the time necessary to expose cells to ATRA to obtain maximal differentiation. […] PICLAMILAST exerts differential effects on a number of transcriptional factors involved in the process of leukemic cell maturation triggered by ATRA. […] The PICLAMILAST dependent enhancement of the ATRA-dependent induction of NBT-R is suppressed by the cAMP antagonist, Rp-8Br-cAMP, and the specific PKA inhibitor H-89. […] This phenomenon is more evident when cells are treated with combinations of ATRA and the PDE4 inhibitor. […] This altogether could represent a clinically relevant finding as it may represent a useful strategy to increase the therapeutic index of ATRA by decreasing its local and systemic toxicity.
# NB4 cells [2] = assay: Gene expression in NB4 / myeloid cells; format: cell-based
# Description: as §1
# NB4 blasts = assay: ATRA induced granulocytic maturation and growth inhibition of NB4 blasts; format: cell-based; details: for PICLAMILAST dependent enhancement of the ATRA-dependent induction of NBT-R: added to PICLAMILAST and ATRA
# Description: as §1
# U937 blasts = assay: ATRA induced granulocytic maturation and growth inhibition of U937 blasts; format: cell-based; details: together with ATRA
# cEBPepsilon = assay: Upregulation of cEBPepsilon; format: cell-based; details: in combination with the retinoid
# Description: as §1
# [3] = system: CREBP transcriptional factor; assay: Phosphorylation state of CREBP in NB4 cells; format: cell-based
# Description: as §1
# HL-60 blasts = assay: ATRA induced granulocytic maturation and growth inhibition of HL-60 blasts; format: cell-based; details: together with ATRA
# [4] = system: retinoic acid receptor, RARalpha; assay: Ligand-dependent transcriptional activity and phosphorylation of RARalpha; format: cell-based
# Description: as §1
# cEBPalpha = assay: Amounts of cEBPalpha in leukemic cell maturation triggered by ATRA; format: cell-based; details: in combination with the retinoid
# Description: as §1
# STAT1 = assay: Amounts and tyrosine phosphorylation of STAT1; format: cell-based; details: in combination with the retinoid
# Description: as §1
# [5] = system: chronic lymphocytic leukemia (CLL) B-lymphocytes; details: in vitro; cited from earlier work
structure (smiles),measurement,setting,value
"CC1=C(/C=C/C(C)=C/C=C/C(C)=C/C(=O)O)C(C)(C)CCC1 [ATRA, all trans retinoic acid]",amounts of cAMP-dependent protein kinase (PKA),NB4 cells [1],Neither basal nor PICLAMILAST-induced levels of cAMP and PKA are modulated
same,amounts of intracellular cAMP,NB4 cells [1],Neither basal nor PICLAMILAST-induced levels of cAMP and PKA are modulated
O=S(=O)(NCCNC/C=C/c1ccc(Br)cc1)c1cccc2cnccc12 [H-89],ATRA-dependent genes whose expression is super-induced by the PDE4 inhibitor,NB4 cells [2]; added to PICLAMILAST and ATRA,does not have the same effect on all
same,PICLAMILAST dependent enhancement of the ATRA-dependent induction of NBT-R,NB4 blasts,suppressed
"COc1ccc(C(=O)Nc2c(Cl)cncc2Cl)cc1OC1CCCC1 [PICLAMILAST, N-(3,5-dichloropyrid-4-yl)-3-cyclopentyloxy-4-methoxybenzamide]",growth inhibitory and cyto-differentiating activities of all trans retinoic acid (ATRA),U937 blasts,potentiates
same,upregulation of cEBPepsilon,cEBPepsilon,no significant effect
same,"expression of cAMP- and CREBP-dependent genes, such as vinculin",NB4 cells [2]; NB4 cells,does not modulate
same,"expression of numerous ATRA-dependent genes, including cathepsin D and syaloadhesin",NB4 cells [2]; with ATRA,enhancing action
same,phosphorylation state of the cAMP dependent CREBP transcriptional factor,[3],down-regulatory action
same,growth inhibitory and cyto-differentiating activities of all trans retinoic acid (ATRA),"NB4 blasts; NB4 blasts, together with ATRA",potentiates
same,process of morphological granulocytic maturation,NB4 blasts; NB4 cells,accelerates
same,ATRA-dependent induction of CD11b,"NB4 blasts; NB4 cells, with ATRA",enhances
same,ATRA-dependent induction of NBT-reductase (NBTR),"NB4 blasts; NB4 cells, with ATRA",enhances
same,time necessary to expose cells to ATRA to obtain maximal differentiation,NB4 blasts; acute myelogenous leukemia cells,reducing
same,growth inhibitory effect of the retinoid,"NB4 blasts; acute myelogenous leukemia cells, with ATRA",increases the growth inhibitory effect of the retinoid in an additive fashion
same,growth inhibitory and cyto-differentiating activities of all trans retinoic acid (ATRA),HL-60 blasts,potentiates
same,PKA-dependent phosphorylation of RARalpha,[4],activated
same,ligand-dependent transcriptional activity of RARalpha,[4]; in combination with the retinoid,enhances
same,amounts of cEBPalpha,cEBPalpha,causes an increase
same,amounts and activation state (tyrosine phosphorylation) of STAT1,STAT1,causes an increase
same,amounts of cAMP-dependent protein kinase (PKA),NB4 cells [1],significant increase
same,amounts of intracellular cAMP,NB4 cells [1],significant increase
Nc1ncnc2c1nc(Br)n2C1OC2COP(O)(=S)OC2C1O (stereo not drawn) [Rp-8Br-cAMP],PICLAMILAST dependent enhancement of the ATRA-dependent induction of NBT-R,NB4 blasts,suppressed
Cn1c(=O)c2[nH]cnc2n(C)c1=O [Theophylline],apoptosis in CLL B-lymphocytes,[5],induce apoptosis
